Source: PubChem BioAssay (NCI)
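Five concentrations, 48 hours, 96-well plates. TGI denotes the concentration required for complete inhibition of growth.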

Tests used:
Assay in all cases: NCI-60 cell line screen, 48 h
BT-549 breast = tested on: BT-549 breast
CAKI-1 renal = tested on: CAKI-1 renal
CCRF-CEM leukemia = tested on: CCRF-CEM leukemia
HL-60(TB) leukemia = tested on: HL-60(TB) leukemia
HOP-62 NSCLC = tested on: HOP-62 NSCLC
M14 melanoma = tested on: M14 melanoma
NCI-H23 lung = tested on: NCI-H23 lung
OVCAR-8 ovarian = tested on: OVCAR-8 ovarian
SK-MEL-28 melanoma = tested on: SK-MEL-28 melanoma
SK-OV-3 ovarian = tested on: SK-OV-3 ovarian
SNB-19 CNS = tested on: SNB-19 CNS

Row | SMILES | TGI (BT-549 breast) [µM] | TGI (CAKI-1 renal) [µM] | TGI (CCRF-CEM leukemia) [µM] | TGI (HL-60(TB) leukemia) [µM] | TGI (HOP-62 NSCLC) [µM] | TGI (M14 melanoma) [µM] | TGI (NCI-H23 lung) [µM] | TGI (OVCAR-8 ovarian) [µM] | TGI (SK-MEL-28 melanoma) [µM] | TGI (SK-OV-3 ovarian) [µM] | TGI (SNB-19 CNS) [µM]
1 | CC(=O)OCC1=C(C)C[C@H]([C@@H](COC(C)=O)C2CCC3C4C[C@H]5O[C@]56CC=CC(=O)[C@]6(C)C4CC[C@@]32C)OC1=O (stereo not given in full) | 3.65 | 2.64 | 0.353 | 0.198 | 1.91 | 0.785 | 3.59 | 0.714 | 1.19 | 6.93 | 7.72
2 | C=CCN(c1cc(OC)c2[nH]cc(C)c2c1[N+](=O)[O-])S(C)(=O)=O | > 100 | > 100 | > 100 | > 100 | > 100 | > 100 | > 100 | > 100 | > 100 | > 100 | > 100
3 | Nc1ccc(Oc2ccc(C34CC5CC6C3CC3CC4C(C5)C6(c4ccc(Oc5ccc(N)c(O)c5)cc4)C3)cc2)cc1O | 20.9 | 27.7 | 40.3 | 3.27 | 18.3 | 8.71 | 31.2 | > 46.7 | 23.6 | 21.7 | 14.7
4 | Oc1cccc(-c2cn3cc(C(F)(F)F)ccc3n2)c1 | > 100 | > 100 | 77.5 | > 100 | > 100 | > 100 | > 100 | > 100 | > 100 | > 100 | > 100
5 | CC(C)C1CC[C@H](C)C[C@@H]1OC(=O)C(C(=O)O[C@H]1C[C@@H](C)CCC1C(C)C)C(O)[C@@H]1OC(C)(C)O[C@H]1C1COC(C)(C)O1 (stereo not given in full) | 34.2 | 34.6 | 50.2 | 42.2 | 37.5 | 37.8 | 31.9 | 47.2 | 35.4 | 65.4 | 29.8
6 | CC1(C)CC2(C)CC1CC2NC(=O)CCN1CCOCC1 (stereo not given) | > 100 | > 100 | > 100 | > 100 | > 100 | > 100 | > 100 | > 100 | > 100 | > 100 | > 100
7 | COc1cc2c(cc1OC)-c1cc3cc(OC)c(OC)cc3c(=O)n1CC2 | > 100 | > 30.3 | > 100 | > 100 | > 72.8 | > 100 | > 100 | > 100 | > 100 | > 100 | > 100
8 | Clc1nc(Cl)c(CBr)c(Cl)n1 | 4.17 | 23.3 | 3.41 | > 100 | 9.72 | 8.38 | 31.2 | 10.2 | 19.9 | 29 | 33.3
9 | N=c1c2c(=S)n(-c3ccccc3)c(=S)n(-c3ccccc3)c2nc(SCCN2CCOCC2)n1-c1ccccc1 | 4.51 | 3.99 | 3.19 | 3.31 | 4.96 | 3.8 | 7.02 | 4.51 | 4.39 | 15 | 24
10 | CC(C)(C)c1ccc(C(C)(C)C)c(N2C(=O)C3ON=C(c4ccc([N+](=O)[O-])cc4)C3C2=O)c1 (stereo not given) | > 25 | > 25 | > 25 | > 25 | > 25 | > 25 | > 25 | > 25 | > 25 | > 25 | > 25
